Here are results for 17 compounds from patent publication US20220324835A1 (Nurix Therapeutics, Inc., priority 2018, published 2022).

Each structure is given as a SMILES string. pIC50, pKd: −log10 of the molar value. Where only a bound is given, the exact number is not on record here.

In experiment [1] the target is Cbl-b (residues 36-427) (Homo sapiens, UniProt Q13191). The experiment is described as follows: Cbl-b binding assay (SPR, Biacore T200). The conditions noted are these: 20° C., 1:1 binding model. In a few lines: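 NeutrAvidin capture chip, 20° C; 50 s injections at 50 μl/min, 90-180 s dissociation; 0.3 M NaCl regeneration. Asterisked column: 50 mM NaCl buffer and 30 nM Src kinase in place of 100 mM NaCl and 60 nM Src kinase. 1:1 fit.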
Chain of Cbl-b (residues 36-427) (Q13191 36-427): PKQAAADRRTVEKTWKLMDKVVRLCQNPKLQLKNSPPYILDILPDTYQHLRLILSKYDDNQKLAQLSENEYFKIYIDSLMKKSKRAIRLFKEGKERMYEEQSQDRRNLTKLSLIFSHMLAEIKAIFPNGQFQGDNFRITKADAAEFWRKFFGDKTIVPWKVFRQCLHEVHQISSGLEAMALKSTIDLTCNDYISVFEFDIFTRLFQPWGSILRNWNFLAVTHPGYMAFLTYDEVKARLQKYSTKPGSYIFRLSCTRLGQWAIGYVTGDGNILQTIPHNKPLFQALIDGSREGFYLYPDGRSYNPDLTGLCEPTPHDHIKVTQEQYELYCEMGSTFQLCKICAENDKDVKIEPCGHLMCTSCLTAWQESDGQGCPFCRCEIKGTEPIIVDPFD
On the technique in general: SPR reads the build-up and loss of mass on a sensor chip optically.

The test system of experiment [2] is T-cell. The experiment is described as follows: CD25 cell surface staining on T-cells stimulated with anti-CD3 antibody alone (Biological Example 2). The format is cell-based, human. To be noted: T-cell, fold change over baseline, primary human total T-cells, read-out: CD25 staining Anti-CD3 stimulation; for fold induction at 1 µM: 1 μM Cbl-b inhibitor; for fold induction at 8 µM: 8 μM Cbl-b inhibitor.

Experiment [3] relates to T-cell. The experiment is described as follows: IL-2 secretion from T-cells stimulated with anti-CD3 antibody alone (Biological Example 2). The format is cell-based, human. To be noted: T-cell, fold change over baseline, primary human total T-cells, read-out: IL-2 secretion Anti-CD3 stimulation; for fold induction at 1 µM: 1 μM Cbl-b inhibitor; for fold induction at 8 µM: 8 μM Cbl-b inhibitor.

Experiment [4] deals with Cbl-b (Homo sapiens, UniProt Q13191). The experiment is described as follows: Cbl-b inhibition assay (Cbl-b activity assay, FRET, Biological Example 1; 100 mM NaCl, 60 nM Src kinase). The format is biochemical. To be noted: upper bound stated in text lists; read-out: IC50 values in the Cbl-b inhibition assay of Biological Example 1. In a few lines:
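Steps: Src kinase phosphorylates N-terminal biotinylated Avi-tagged Cbl-b; phosphorylated Cbl-b binds Bodipy-fluorescein ubiquitin-loaded UbcH5B; streptavidin-terbium on Cbl-b sits close to the fluorescein label, producing FRET. Inhibitors block UbcH5B-Ub binding.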

In general, pKd refers to the negative decadic logarithm of the Kd, by convention in mol/L. Read a high pKd as a small Kd. One may read the pIC50 as −log10 of the IC50, conventionally taken in molar units.

Chain of Cbl-b (Q13191 36-427): as above

Compound `C[C@H](Sc1nncn1C)c1cccc(NC(=O)c2cc(C(F)(F)F)cc(C3CC3)n2)c1` [Compound 69, (S)-6-cyclopropyl-N-(3-(1-((4-methyl-4H-1,2,4-triazol-3-yl)thio)ethyl)phenyl)-4-(trifluoromethyl)picolinamide] gave a pKd in experiment [1] of 5.00 to 5.52. Moreover, the fold induction at 1 µM in experiment [2] is below 0.6; in experiment [3], below 0.05. The fold induction at 8 µM in experiment [2] was below 0.6; in experiment [3], below 0.05. In addition, the pIC50 in experiment [4] is at least 6.30.

In the case of `Cc1ncc(C(=O)Nc2cccc([C@H](C)Sc3nncn3C)c2)nc1C1CC1` [Compound 70, (S)-6-cyclopropyl-5-methyl-N-(3-(1-((4-methyl-4H-1,2,4-triazol-3-yl)thio)ethyl)phenyl)pyrazine-2-carboxamide], in experiment [1], the pKd is 6.00 to 6.52. In experiment [2], the fold induction at 1 µM is 0.801 to 1 and the fold induction at 8 µM was in the range of 0.801 to 1. Moreover, in experiment [3], the fold induction at 1 µM is below 0.05 and the fold induction at 8 µM fell in the range of 0.051 to 0.1. Moreover, in experiment [4], the pIC50 is at least 6.30.

In experiment [1], `COc1cc(C(=O)Nc2cccc([C@H](C)Sc3nncn3C)c2)nc(C(F)(F)F)c1` [Compound 71, (S)-4-methoxy-N-(3-(1-((4-methyl-4H-1,2,4-triazol-3-yl)thio)ethyl)phenyl)-6-(trifluoromethyl)picolinamide] had a pKd of 6.52 to 7.00. In addition, in experiment [2], the fold induction at 1 µM is 0.801 to 1 and the fold induction at 8 µM lay within 0.801 to 1. In experiment [3], the fold induction at 1 µM is 0.051 to 0.1 and the fold induction at 8 µM is above 0.201. Besides, the pIC50 in experiment [4] is at least 6.30.

On to `C[C@H](Sc1nncn1C)c1cccc(NC(=O)c2ccnc(C(F)(F)F)n2)c1` [Compound 75, N-[3-[(1S)-1-[(4-methyl-1,2,4-triazol-3-yl)sulfanyl]ethyl]phenyl]-2-(trifluoromethyl)pyrimidine-4-carboxamide], for which the negative-log Kd (pKd) in experiment [1] was 6.00 to 6.52. Besides, the fold induction at 1 µM was 0.601 to 0.8 in experiment [2] and below 0.05 in experiment [3]. Also, the fold induction at 8 µM in experiment [2] lay within 0.801 to 1; in experiment [3], 0.051 to 0.1. Further, in experiment [4], the pIC50 was at least 6.30.

With `C[C@H](Sc1nncn1C)c1cccc(NC(=O)c2cncc(C(F)(F)F)n2)c1` [Compound 77, N-[3-[(1S)-1-[(4-methyl-1,2,4-triazol-3-yl)sulfanyl]ethyl]phenyl]-6-(trifluoromethyl)pyrazine-2-carboxamide], the pKd in experiment [1] was 5.52 to 6.00. In addition, in experiment [2], the fold induction at 1 µM is below 0.6 and the fold induction at 8 µM was 0.601 to 0.8. In experiment [3], the fold induction at 1 µM was below 0.05 and the fold induction at 8 µM was below 0.05. The pIC50 in experiment [4] was at least 6.30.

For the compound `C[C@H](Sc1nncn1C)c1cccc(NC(=O)c2cc3c(Cl)cccc3[nH]2)c1` [Compound 78, 4-chloro-A-[3-[(LS)-1-[(4-methyl-1,2,4-triazol-3-yl)sulfanyl]ethyl]phenyl]-1H-indole-2-carboxamide], the pKd in experiment [1] was 6.52 to 7.00. Further, the fold induction at 1 µM in experiment [2] was 0.601 to 0.8; in experiment [3], below 0.05. For the same compound, the fold induction at 8 µM in experiment [2] is 0.801 to 1; in experiment [3], above 0.201. The pIC50 in experiment [4] was at least 6.30.

As to `C[C@H](Sc1nncn1C)c1cccc(NC(=O)c2cccc(S(C)(=O)=O)n2)c1` [Compound 80, (S)-N-(3-(1-((4-methyl-4H-1,2,4-triazol-3-yl)thio)ethyl)phenyl)-6-(methylsulfonyl)picolinamide], in experiment [1], the pKd was 5.00 to 5.52. Moreover, in experiment [2], the fold induction at 1 µM is below 0.6 and the fold induction at 8 µM was below 0.6. In addition, in experiment [3], the fold induction at 1 µM is below 0.05 and the fold induction at 8 µM is below 0.05. The pIC50 in experiment [4] was at least 5.00.

The compound `C[C@H](Sc1nncn1C)c1cccc(NC(=O)c2cccc(C(C)(F)F)n2)c1` [Compound 81, (S)-6-(1,1-difluoroethyl)-N-(3-(1-((4-methyl-4H-1,2,4-triazol-3-yl)thio)ethyl)phenyl)picolinamide] had a pKd in experiment [1] of 6.00 to 6.52. Besides, in experiment [2], the fold induction at 1 µM lay in the range of 0.801 to 1 and the fold induction at 8 µM is above 1. In experiment [3], the fold induction at 1 µM is below 0.05 and the fold induction at 8 µM lay within 0.151 to 0.2. In experiment [4], the pIC50 was at least 6.30.

In turn, `C[C@H](Sc1nncn1C)c1cccc(NC(=O)c2cc(C(C)(C)O)cc(C(F)(F)F)n2)c1` [Compound 85, 4-(1-hydroxy-1-methyl-ethyl)-N-[3-[(1S)-1-[(4-methyl-1,2,4-triazol-3-yl)sulfanyl]ethyl]phenyl]-6-(trifluoromethyl)pyridine-2-carboxamide] showed a pKd in experiment [1] of 6.00 to 6.52. Moreover, in experiment [2], the fold induction at 1 µM fell in the range of 0.601 to 0.8 and the fold induction at 8 µM is above 1. Besides, in experiment [3], the fold induction at 1 µM is below 0.05 and the fold induction at 8 µM was below 0.05. The pIC50 in experiment [4] was at least 6.30.

In experiment [1], `C[C@H](Sc1nncn1C)c1ccc(F)c(NC(=O)c2cccc(C(F)(F)F)n2)c1` [Compound 95a, (S)-N-(2-fluoro-5-(1-((4-methyl-4H-1,2,4-triazol-3-yl)thio)ethyl)phenyl)-6-(trifluoromethyl)picolinamide] had a pKd of 5.52 to 6.00. Moreover, in experiment [2], the fold induction at 1 µM was below 0.6 and the fold induction at 8 µM was below 0.6. For the same compound, in experiment [3], the fold induction at 1 µM was below 0.05 and the fold induction at 8 µM was in the range of 0.051 to 0.1. In experiment [4], the pIC50 was at least 6.30.

The compound `C[C@H](Sc1nnc[nH]1)c1cccc(NC(=O)c2cc3ccccc3cn2)c1` [Compound 98, (S)-N-(3-(1-((4H-1,2,4-triazol-3-yl)thio)ethyl)phenyl)isoquinoline-3-carboxamide] showed a pKd in experiment [1] of 5.00 to 5.52. In experiment [2], the fold induction at 1 µM was below 0.6 and the fold induction at 8 µM is below 0.6. Besides, in experiment [3], the fold induction at 1 µM fell in the range of 0.051 to 0.1 and the fold induction at 8 µM lay within 0.051 to 0.1. The pIC50 in experiment [4] was at least 6.00.

In the case of `Cc1cc(C(=O)Nc2cc([C@H](C)Sc3nncn3C)ccn2)nc(C(F)(F)F)c1` [Compound 103, (S)-4-methyl-N-(4-(1-((4-methyl-4H-1,2,4-triazol-3-yl)thio)ethyl)pyridin-2-yl)-6-(trifluoromethyl)picolinamide], the pKd in experiment [1] was 5.52 to 6.00. Further, in experiment [2], the fold induction at 1 µM is below 0.6 and the fold induction at 8 µM was 0.801 to 1. Moreover, in experiment [3], the fold induction at 1 µM is below 0.05 and the fold induction at 8 µM was in the range of 0.051 to 0.1. For the same compound, in experiment [4], the pIC50 is at least 6.00.

Compound `C[C@H](Sc1nncn1C)c1ccnc(NC(=O)c2cc(C3CC3)cc(C(F)(F)F)n2)c1` [Compound 104, (S)-4-cyclopropyl-N-(4-(1-((4-methyl-4H-1,2,4-triazol-3-yl)thio)ethyl)pyridin-2-yl)-6-(trifluoromethyl)picolinamide] showed a pKd in experiment [1] of 5.52 to 6.00. In experiment [2], the fold induction at 1 µM lay within 0.601 to 0.8 and the fold induction at 8 µM was 0.801 to 1. Also, in experiment [3], the fold induction at 1 µM was below 0.05 and the fold induction at 8 µM is below 0.05. Besides, the pIC50 in experiment [4] was at least 6.00.

Compound `C[C@H](Sc1nncn1C)c1ccnc(NC(=O)c2cc(Cl)cc(C(F)(F)F)n2)c1` [Compound 105, (S)-4-chloro-N-(4-(1-((4-methyl-4H-1,2,4-triazol-3-yl)thio)ethyl)pyridin-2-yl)-6-(trifluoromethyl)picolinamide] gave a pKd in experiment [1] of 5.52 to 6.00. For the same compound, in experiment [2], the fold induction at 1 µM was below 0.6 and the fold induction at 8 µM lay within 0.601 to 0.8. In addition, in experiment [3], the fold induction at 1 µM was below 0.05 and the fold induction at 8 µM is below 0.05. Further, the pIC50 in experiment [4] was at least 6.00.

In experiment [1], `Cc1ccc(C(=O)Nc2cc([C@H](C)Sc3nncn3C)ccn2)nc1C1CC1` [Compound 113, (S)-6-cyclopropyl-5-methyl-N-(4-(1-((4-methyl-4H-1,2,4-triazol-3-yl)thio)ethyl)pyridin-2-yl)picolinamide] gave a pKd of 5.52 to 6.00. Moreover, in experiment [2], the fold induction at 1 µM was below 0.6 and the fold induction at 8 µM was below 0.6. Also, in experiment [3], the fold induction at 1 µM was below 0.05 and the fold induction at 8 µM is below 0.05. Besides, in experiment [4], the pIC50 was at least 6.00.

Compound `C[C@H](Sc1nncn1C)c1ccnc(NC(=O)c2cc3c(C(F)(F)F)cccc3[nH]2)c1` [Compound 120, N-[4-[(1S)-1-[(4-methyl-1,2,4-triazol-3-yl)sulfanyl]ethyl]-2-pyridyl]-4-(trifluoromethyl)-1H-indole-2-carboxamide] had a pKd in experiment [1] of 6.00 to 6.52. Moreover, in experiment [2], the fold induction at 1 µM is below 0.6 and the fold induction at 8 µM is below 0.6. Besides, in experiment [3], the fold induction at 1 µM was below 0.05 and the fold induction at 8 µM is below 0.05. Also, in experiment [4], the pIC50 was at least 6.30.

`Cc1nc2cc([C@H](C)Sc3nncn3C)cc(NC(=O)c3cccc(C(F)(F)F)n3)c2o1` [Compound 130a, (S)-N-(2-methyl-5-(1-((4-methyl-4H-1,2,4-triazol-3-yl)thio)ethyl)benzo[d]oxazol-7-yl)-6-(trifluoromethyl)picolinamide]: in experiment [1], the pKd was 6.00 to 6.52. In experiment [2], the fold induction at 1 µM was in the range of 0.601 to 0.8 and the fold induction at 8 µM is above 1. Also, in experiment [3], the fold induction at 1 µM was below 0.05 and the fold induction at 8 µM was above 0.201. Moreover, the pIC50 in experiment [4] was at least 6.00.
